In publication PMC2789240, “Comparative structural, kinetic and inhibitor studies of Trypanosoma brucei trypanothione reductase with T. cruzi^” (Molecular and Biochemical Parasitology, 2010):
Like-named read-outs stand apart in the source and are kept apart here.

Experiments:
[1] = biological target: T1, TcTryR (recombinant T. cruzi trypanothione reductase) (Trypanosoma cruzi, UniProt P28593); assay: 412 nm DTNB-coupled trypanothione reductase assay (IC50, Km); assay type: biochemical; settings: 412 nm assay, T(S)2 at S = Km (10.4 μM), weighted mean of three occasions
T1 construct: made in house
Method: Assay plates were prepared using a Precision2000 liquid handler (Bio-Tek) with a final DMSO concentration of 1% in all wells. Plates contained a 10-point serial dilution (2-fold or 3-fold dilutions) across columns 2–11 with a top concentration of 100 μM or 200 μM. […] Column 1 contained full signal controls (no inhibitor) and column 12 contained background controls (no enzyme). […] Z′ figures were calculated from the full signal and background controls.

[2] = test system: TbTryR (recombinant T. b. brucei trypanothione reductase)
[3] = biological target: T2, TbTryR (recombinant T. b. brucei trypanothione reductase) (Trypanosoma brucei brucei, UniProt Q389T8); assay: biochemical
[4] = test system: Bloodstream form T. b. brucei cells (strain 427, 'single marker'); settings: cited from earlier work
[5] = test system: Bloodstream form T. b. brucei cells (strain 427, 'single marker'); assay: Growth inhibition of bloodstream form T. b. brucei (resazurin); assay type: cell-based; settings: Trypanosoma brucei, 72 h, 3 days incubation, weighted mean of three experiments
Method: Bloodstream form T. b. brucei cells (strain 427, ‘single marker’) were grown at 37 °C and 5% CO2 in a modified HMI9 [21] (HMI9-T where 0.2 mM 2-mercaptoethanol was replaced with 0.056 mM thioglycerol). Stock cultures were maintained in T75 vented cap culture flasks (Greiner, Kremsmuenster, Austria) and sub-cultured every 48–72 h by dilution into fresh medium. For microtitre plate assays, cells were counted using a Casy cell counter TT (Schärfe systems) and diluted appropriately. Compounds were tested in 96-well test plates (Greiner). The final conditions were 50–0.07 μM test compound (9-point 3-fold serial dilutions), 0.5% DMSO, 10^3 ml^−1 cells in a total volume of 0.2 ml. Plates were incubated for 3 days, resazurin was added to a final concentration of 45 μM and plates incubated for a further 4 h. Fluorescence was measured at 528 nm excitation and 590 nm emission. EC50 values were determined in three separate experiments and the data reported as weighted means.

African trypanosomiasis [6] = test system: African trypanosomiasis; design: method as in PMID 3503414; settings: 50 mg kg^-1, i.p.; cited from earlier work
TbTryR = TbTryR (Trypanosoma brucei brucei, UniProt Q389T8); assay: Modified 412 nm DTNB-coupled assay with NADPH regeneration by glucose-6-phosphate dehydrogenase; assay type: biochemical; settings: NADPH-regenerating system, 6 μM T(S)2
Method: In order to determine Km with respect to NADPH using the 412 nm DTNB assay, NADPH levels were maintained constant using glucose-6-phosphate and glucose-6-phosphate dehydrogenase from Saccharomyces cerevisiae. […] The final assay mixture contained 40 mM HEPES pH 7.4, 1 mM EDTA, ∼10 mU ml^−1 TryR, 6 μM T(S)2, 50 μM DTNB and 0.2–200 μM NADPH (7-point 3-fold serial dilution). Assays were initiated by addition of the NADPH. Km values with respect to NADPH were determined for TbTryR in three independent experiments and a weighted mean calculated.

[7] = test system: L. donovani trypanothione reductase; design: method as in PMID 7607216; settings: read-out: Km T(S)2 (by NADPH oxidation); cited from earlier work
[8] = biological target: T2, TbTryR (recombinant T. b. brucei trypanothione reductase); settings: 150 μM NADH as electron donor, 412 nm assay
African trypanosomiasis [9] = test system: African trypanosomiasis; design: method as in Halliburton and Fairlamb, unpublished; settings: 50 mg kg^-1, i.p., acute mouse model; ref Halliburton and Fairlamb, unpublished; cited from earlier work
[10] = ratio of IC50 values at respective S = Km

T2 sequence (Q389T8 entry or part of it): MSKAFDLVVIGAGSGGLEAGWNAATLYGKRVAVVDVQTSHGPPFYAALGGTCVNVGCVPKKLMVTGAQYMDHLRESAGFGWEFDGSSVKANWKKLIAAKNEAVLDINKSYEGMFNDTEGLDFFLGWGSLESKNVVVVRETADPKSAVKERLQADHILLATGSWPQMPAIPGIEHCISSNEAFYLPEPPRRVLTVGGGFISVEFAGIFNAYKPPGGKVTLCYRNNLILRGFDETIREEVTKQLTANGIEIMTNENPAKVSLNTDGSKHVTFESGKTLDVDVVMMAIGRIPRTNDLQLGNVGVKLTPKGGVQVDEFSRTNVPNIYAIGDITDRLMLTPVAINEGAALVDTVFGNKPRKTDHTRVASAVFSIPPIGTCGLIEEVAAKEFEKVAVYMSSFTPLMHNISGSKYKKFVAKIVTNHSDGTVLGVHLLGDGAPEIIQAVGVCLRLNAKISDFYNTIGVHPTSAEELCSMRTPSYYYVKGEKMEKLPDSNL
T1 sequence (P28593 whole entry): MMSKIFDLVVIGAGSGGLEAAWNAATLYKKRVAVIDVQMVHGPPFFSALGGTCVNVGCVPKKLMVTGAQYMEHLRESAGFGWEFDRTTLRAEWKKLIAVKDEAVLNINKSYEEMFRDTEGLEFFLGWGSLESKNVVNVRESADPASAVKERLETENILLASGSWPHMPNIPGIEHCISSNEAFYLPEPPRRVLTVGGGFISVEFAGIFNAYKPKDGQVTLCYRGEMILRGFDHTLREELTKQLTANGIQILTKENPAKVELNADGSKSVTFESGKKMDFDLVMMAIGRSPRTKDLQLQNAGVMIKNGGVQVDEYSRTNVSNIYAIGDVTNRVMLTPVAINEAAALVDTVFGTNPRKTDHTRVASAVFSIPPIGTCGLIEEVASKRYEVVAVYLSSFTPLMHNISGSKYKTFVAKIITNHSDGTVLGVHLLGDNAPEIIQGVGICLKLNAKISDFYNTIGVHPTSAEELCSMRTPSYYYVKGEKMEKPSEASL
TbTryR, sequence (Q389T8 entry or part of it): as the sequence (Q389T8 entry or part of it) above

| Structure (SMILES) | IC50 [1] | IC50 [3] | EC50 ([4]; ref Martyn et al. [19]) | Ratio Tc/Tb (IC50 TcTryR / IC50 TbTryR) [2, 10] | further results |
| --- | --- | --- | --- | --- | --- |
| CCN(CC)CCCC(C)Nc1c2ccc(Cl)cc2nc2ccc(OC)cc12 (centres unmarked) [Quinacrine] | 37.8 ± 1.91 µM | 22.1 ± 2.05 µM |  |  | Ratio Tc/Tb (IC50 TcTryR / IC50 TbTryR) [2]: 1.7 |
| CN(C)CCC(=O)c1ccc(Cl)c(Cl)c1 [DM8a] | 7.99 ± 0.51 µM | 3.17 ± 0.17 µM | 1 ± 0.21 µM |  | Ratio Tc/Tb (IC50 TcTryR / IC50 TbTryR) [2]: 2.5 |
| CN1CCN(CCCN2c3ccccc3Sc3ccc(C(F)(F)F)cc32)CC1 [Trifluoperazine] | 20.9 ± 0.9 µM |  |  |  | EC50 [5]: 2.11 ± 0.5 µM; activity in the chronic mouse model of African trypanosomiasis (African trypanosomiasis [6]): inactive |
| CC(C)(C)c1cc(CN(CCO)CCO)cc(C(C)(C)C)c1O [DM7a] | 27.8 ± 2.08 µM | 19.2 ± 1.75 µM | 3.01 ± 0.3 µM | 1.4 |  |
| CN(C)CCCC1(c2ccc(F)cc2)OCc2cc(C#N)ccc21 (centres unmarked) [Citalopram] | 154 ± 5.42 µM | 82.3 ± 6.35 µM |  | 1.9 | EC50 [5]: 6.59 ± 0.54 µM |
| NC(=O)C1=CN([C@@H]2O[C@H](COP(=O)(O)OP(=O)(O)OC[C@H]3O[C@@H](n4cnc5c(N)ncnc54)[C@H](OP(=O)(O)O)[C@@H]3O)[C@@H](O)[C@H]2O)C=CC1 [NADPH] |  |  |  |  | Km (TbTryR): 0.77 ± 0.01 µM |
| N[C@@H](CCC(=O)N[C@H]1CSSC[C@H](NC(=O)CC[C@H](N)C(=O)O)C(=O)NCC(=O)NCCCNCCCCNC(=O)CNC1=O)C(=O)O [T(S)2, trypanothione disulphide] |  |  |  |  | Km [7]: 36 µM |
| CN(C)CCC(=O)c1cccc([N+](=O)[O-])c1 [DM6a] | 3.8 ± 0.2 µM | 3.2 ± 0.16 µM | 0.68 ± 0.1 µM | 1.2 |  |
| CSc1ccc2c(c1)N(CCC1CCCCN1C)c1ccccc1S2 (centres unmarked) [Thioridazine] |  |  |  |  | activity in the chronic mouse model of African trypanosomiasis (African trypanosomiasis [6]): inactive |
| NC(=O)C1=CN([C@@H]2O[C@H](COP(=O)(O)OP(=O)(O)OC[C@H]3O[C@@H](n4cnc5c(N)ncnc54)[C@H](O)[C@@H]3O)[C@@H](O)[C@H]2O)C=CC1 [NADH] |  |  |  |  | Activity relative to that obtained with 150 μM NADPH [8]: 5.7% |
| O=c1c2ccccc2[se]n1-c1ccccc1 [Ebselen] | 0.6 ± 0.01 µM | 0.18 ± 0.01 µM |  | 3.3 | EC50 ([4]; ref Richardson et al. [33]): 2.97 µM |
| CN(C)CCCN1c2ccccc2CCc2ccc(Cl)cc21 [Clomipramine] |  |  |  |  | extension of survival time (African trypanosomiasis [9]): failed to extend survival time by even one day |
| CN(C)CCC(=O)c1ccc(S(C)(=O)=O)cc1 [DM5a] | 16.9 ± 1.08 µM | 6.8 ± 0.42 µM | 0.55 ± 0.04 µM | 2.5 |  |
